We go through 14 compounds from ChEMBL document CHEMBL4609988, “Heterocycle amide isosteres: An approach to overcoming resistance for HIV-1 integrase strand transfer inhibitors” (Bioorg Med Chem Lett, 2020).

Where only a bound is given, the exact number is not on record here.

Data set [1] concerns the target Human immunodeficiency virus type 1 integrase (Human immunodeficiency virus 1, UniProt Q7ZJM1). Briefly: Inhibition of HIV-1 integrase strand transfer activity.
In data set [2] the test system is Human immunodeficiency virus 1. Briefly: Ratio of EC50 for antiviral activity against HIV1 NL4-3 harboring Q148R mutant to EC50 for antiviral activity against HIV1 NL4-3. It is filed as functional.
Data set [3] relates to Human immunodeficiency virus 1. Briefly: Ratio of EC50 for antiviral activity against HIV1 NL4-3 harboring G140S/Q148H mutant to EC50 for antiviral activity against HIV1 NL4-3. It is filed as functional.
Data set [4] concerns Human immunodeficiency virus 1. As to the kind of experiment: Ratio of EC50 for antiviral activity against HIV1 NL4-3 harboring N155H mutant to EC50 for antiviral activity against HIV1 NL4-3. The data set is classed as functional.
Data set [5] has as its system Human immunodeficiency virus 1. As to the kind of experiment: Antiviral activity against HIV1 NL4-3 harboring Q148R mutant by cellular assay. The data set is classed as functional, organism-based. Particulars: Human immunodeficiency virus 1, NL4-3.
The subject of data set [6] is Human immunodeficiency virus 1. Briefly: Antiviral activity against HIV1 NL4-3 harboring […]/Q148H mutant by cellular assay. The data set is classed as functional, organism-based. Particulars: Human immunodeficiency virus 1, NL4-3.
Data set [7] relates to Human immunodeficiency virus 1. Briefly: Antiviral activity against HIV1 NL4-3 harboring N155H mutant by cellular assay. The data set is classed as functional, organism-based. As to conditions: Human immunodeficiency virus 1, NL4-3.
For data set [8], the system named is Human immunodeficiency virus 1. Briefly: Antiviral activity against HIV1 NL4-3 by cellular assay. The data set is classed as functional, organism-based. As to conditions: Human immunodeficiency virus 1, NL4-3.
Data set [9] is described as follows: Volume of distribution at steady state in rat at 1 mg/kg, iv. The data set is classed as ADME, organism-based. Particulars: in vivo, read-out: Vdss.
Data set [10] can be described thus: Clearance in rat at 1 mg/kg, iv. As to conditions: in vivo. The data set is classed as ADME, organism-based.
Data set [11] can be described thus: AUC in rat at 1 mg/kg, iv. The data set is classed as ADME, organism-based. As to conditions: in vivo.

Human immunodeficiency virus type 1 integrase, sequence (Q7ZJM1 whole entry): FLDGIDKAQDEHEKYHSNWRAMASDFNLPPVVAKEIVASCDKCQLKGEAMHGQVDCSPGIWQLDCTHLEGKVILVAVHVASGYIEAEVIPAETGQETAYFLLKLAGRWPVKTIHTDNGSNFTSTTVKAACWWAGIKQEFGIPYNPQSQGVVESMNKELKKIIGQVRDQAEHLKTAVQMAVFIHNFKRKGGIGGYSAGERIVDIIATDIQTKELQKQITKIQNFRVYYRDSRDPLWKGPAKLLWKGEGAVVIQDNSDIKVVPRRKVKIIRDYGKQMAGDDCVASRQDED

As for `Cc1nc(-c2nc3n(c(=O)c2O)CCOC3(C)C)nn1Cc1ccc(F)cc1`, in data set [1], the EC50 (in general, the concentration at which the effect is half-maximal) was more than 30 µM.

`CC1(C)OCCn2c1nc(-c1nnc(Cc3ccc(F)cc3)[nH]1)c(O)c2=O`: the “Ratio EC50” value in [2] is 19; in [3] it was more than 500; in data set [4], 49. Further, the EC50 in data set [5] is 1.5 µM; in data set [6] it was more than 40 µM; in data set [7] it was 4 µM; in [8], 0.081 µM.

`CC1(C)OCCn2c1nc(-c1nnc(Cc3ccc(F)cc3)o1)c(O)c2=O`: the “Ratio EC50” value is on record as 0.5 in [2], more than 100 in data set [3] and 3 in data set [4]. Further, the 50% effective concentration (EC50) in [5] is 0.19 µM; in [6], more than 40 µM; in [7], 1.3 µM; in data set [8] it was 0.39 µM.

Take `CC1(C)OCCn2c1nc(C(=O)NCc1ccc(F)cc1)c(O)c2=O`: the figures for the “Ratio EC50” value in data set [2], in data set [3] and in [4] were 99, more than 2666 and 47, respectively. In addition, the EC50 in data set [5] is 0.3 µM; in [6], more than 8 µM; in data set [7] it was 0.14 µM; in data set [8] it was 0.003 µM.

As for `CC1(C)OCCn2c1nc(-c1ncn(Cc3ccc(F)cc3)n1)c(O)c2=O`, the “Ratio EC50” value in data set [2] is listed as 34; in data set [3] it was 563; in data set [4], 2. In addition, the EC50 in data set [5] was 0.22 µM; in [6] it was 3.7 µM; in [7], 0.016 µM; in data set [8], 0.007 µM. Moreover, the Vd in data set [9] is 1.5 L/kg. For the same compound, the clearance (as a rule, the volume of plasma or blood freed of the substance per unit of time) in data set [10] was 3.12 L/h/kg. Besides, the AUC (usually concentration integrated over time) in [11] stood at 872 nM·h.

For the compound `CC1(C)OCCn2c1nc(-c1ncc(Cc3ccc(F)cc3)s1)c(O)c2=O`, the “Ratio EC50” value is 30 in data set [2], 177 in data set [3] and 11 in [4]. The EC50 is 0.091 µM in data set [5], 0.54 µM in data set [6], 0.034 µM in data set [7] and 0.003 µM in data set [8].

In data set [1], `Cn1cc(Cc2ccc(F)cc2)nc1-c1nc2n(c(=O)c1O)CCOC2(C)C` registered an EC50 of 9.3 µM.

As to `Cn1c(Cc2ccc(F)cc2)cnc1-c1nc2n(c(=O)c1O)CCOC2(C)C`, the EC50 was found to be 0.061 µM in [5], 0.53 µM in [6], 0.036 µM in [7] and 0.01 µM in [8]. Besides, the Vd in [9] is 0.5 L/kg. Also, the clearance in data set [10] was 0.66 L/h/kg. In addition, the area under the curve (AUC) in [11] was found to be 3920 nM·h.

As for `CC1(C)OCCn2c1nc(-c1ncc(Cc3ccc(F)cc3)[nH]1)c(O)c2=O`, the entries for the “Ratio EC50” value in [2], in [3] and in [4] were 6, 54 and 0.3, respectively. In addition, the EC50 in data set [5] was found to be 0.033 µM; in data set [6] it was 0.32 µM; in [7] it was 0.002 µM; in [8] it was 0.006 µM. The Vd in data set [9] came out at 0.3 L/kg. In [10], this compound displayed a clearance of 0.6 L/h/kg. This compound also displayed an AUC in data set [11] of 4550 nM·h.

Consider `CC1(C)OCCn2c1nc(-c1cc(Cc3ccc(F)cc3)[nH]n1)c(O)c2=O`, for which the results for the “Ratio EC50” value in data set [2], in data set [3] and in [4] were 26, 36 and 22, respectively. Moreover, the EC50 is 3 µM in data set [5], 4.2 µM in data set [6], 0.26 µM in [7] and 0.12 µM in data set [8].

In the case of `Cn1c(Cc2ccc(F)cc2)nnc1-c1nc2n(c(=O)c1O)CCOC2(C)C`, the values for the EC50 in data set [5], in [6] and in data set [8] were 0.45 µM, 1.1 µM and 0.081 µM, respectively.

`CC1(C)OCCn2c1nc(-c1cn(Cc3ccc(F)cc3)cn1)c(O)c2=O`: the “Ratio EC50” value in data set [2] amounted to 7; in data set [3], 80; in data set [4] it was 2. Also, the 50% effective concentration (EC50) in data set [5] was 0.026 µM; in data set [6], 0.32 µM; in data set [7], 0.009 µM; in data set [8] it was 0.004 µM. Besides, the Vd in data set [9] was 3.5 L/kg. In addition, the clearance in [10] was 7.62 L/h/kg. The compound further displayed an AUC in [11] of 353 nM·h.

As to `CC1(C)OCCn2c1nc(-c1ncc(Cc3ccc(F)cc3)o1)c(O)c2=O`, the results for the “Ratio EC50” value in data set [2], in data set [3] and in data set [4] were 15, 318 and 4, respectively. Further, the EC50 came to 0.33 µM in data set [5], 6.9 µM in [6], 0.088 µM in data set [7] and 0.022 µM in [8].

As to `CC1(C)OCCn2c1nc(-c1nc(Cl)c(Cc3ccc(F)cc3)[nH]1)c(O)c2=O`, in [1], the EC50 was more than 64 µM.
